Measured values: patent publication US20180117103A1, “COMPOSITION FOR ANTIOXIDATION AND IMPROVEMENT OF SKIN CONDITIONS” (CELL BIOTECH CO., LTD., priority 2016, published 2018)

Legend:
[1] = Weight change of white rats on oral administration of probiotics and vitamin C (Test Example 1); type: in vivo, white rats (male, SD rats); details: N = 5
Experimental: In order to verify the effect of a combination of probiotics and vitamin C on anti-aging and the like, 4-week-old white rats (male, SD rats, Saeronbio, Korea) were purchased. Two of the animals were housed in each polypropylene cage and acclimated for one week while they were allowed access to feed and water ad libitum. In addition, the animals were housed at a temperature of 24±2° C. and a relative humidity of 40±20% with a 12-hr light/12-hr dark cycle. During the acclimation period, the health of the rats was checked, and among these rats, animals whose activity was not reduced were selected and used in subsequent tests. […] In order to examine the stability and phenotype of each white rat when the probiotics and the vitamin C were administered to the test animals for 5 weeks in Example 1, the weight change patterns of the white rats during the period from the day before administration to 5 weeks after the start of administration in Example 1 were measured, and the results of the measurement are shown in Table 2 below.

L. rhamnosus = assay: Distribution of L. rhamnosus in feces of white rats by real-time PCR (Test Example 4); type: in vivo, white rats (male, SD rats); details: intestinal feces at 5 weeks after oral administration
Experimental: (§1) In order to examine the change in intestinal microorganisms by administration of probiotics and vitamin C according to the present invention, expression of genesspecific for L. rhamnosus and E. faecium in the test groups (G1 to G4) prepared in Example 1 was measured.
(§2) At 5 weeks after oral administration in Example 1, intestinal feces were isolated from the rats of G1 to G4, and DNA was extracted using an MP bio stool kit according to the manufacturer's protocol. Using the extracted DNA, real-time polymerase chain reaction (PCR) was performed using primers specific for L. rhamnosus and E. faecium. The results are shown in FIGS. 4 and 5 and Tables 6 and 7 below.

[2] = test system: superoxide dismutase (SOD); assay: Activity of superoxide dismutase in serum of white rats, colorimetric assay kit (Test Example 2); type: in vivo, white rats (male, SD rats); details: oral administration for 5 weeks
Experimental: In order to examine the change in antioxidant activity by administration of probiotics and vitamin C (group G4) according to the present invention, antioxidant enzyme activity and serum vitamin levels were measured in the following manner. Blood was collected from the orbits of the white rats of Example 1. The collected blood was incubated at room temperature for 2 hours, and then centrifuged at 1500×g at 4° C. for 15 minutes to separate sera, and the separated sera were stored at −80° C. until use in experiments. For measurement of the activity of antioxidant enzyme in the separated sera, the activity of superoxide dismutase in the sera was measured using a superoxide dismutase assay kit based on a colorimetry assay, and the results of the measurement are shown in FIG. 1 and Table 3 below.

[3] = test system: total antioxidant capacity (TAS); assay: Total antioxidant capacity (TAS) in serum of white rats, colorimetric kit (Test Example 2); type: in vivo, white rats (male, SD rats); details: oral administration for 5 weeks
Experimental: In order to examine the change in antioxidant activity by administration of probiotics and vitamin C (group G4) according to the present invention, antioxidant enzyme activity and serum vitamin levels were measured in the following manner. Blood was collected from the orbits of the white rats of Example 1. The collected blood was incubated at room temperature for 2 hours, and then centrifuged at 1500×g at 4° C. for 15 minutes to separate sera, and the separated sera were stored at −80° C. until use in experiments. In order to measure the defense system composed of antioxidant vitamins, non-enzymatic antioxidant substances and antioxidant enzymes, which defend against the toxicity of reactive oxygen species and total antioxidant capacity (TAS) values were measured using a kit of measuring antioxidant activity based on a colorimetry assay.

E. faecium = assay: Distribution of E. faecium in feces of white rats by real-time PCR (Test Example 4); type: in vivo, white rats (male, SD rats); details: intestinal feces at 5 weeks after oral administration
Experimental: as §1, §2

[4] = Vitamin C levels in sera of white rats by HPLC; type: in vivo; details: male, SD, rat, 1000 mg/head, serum of white rats, oral administration for 5 weeks, read-out: Vit C (serum vitamin C level), Mean ± SD
Experimental: Blood was collected from the orbits of the white rats of Example 1. The collected blood was incubated at room temperature for 2 hours, and then centrifuged at 1500×g at 4° C. for 15 minutes to separate sera, and the separated sera were stored at −80° C. until use in experiments.
For measurement of vitamin C levels in the sera of the white rats prepared in Example 1, high-performance liquid chromatography (HPLC) analysis was performed using a vitamin C reagent kit, and the results of the analysis are shown in FIG. 3 and Table 5 below.

O=C1O[C@H]([C@@H](O)CO)C(O)=C1O [G3, L-ascorbic acid]
Change in weight, Mean ([1]; 0 week (day before administration), oral): 137.6 g | Change in weight, Mean ([1]; 1 week of oral administration): 178.8 g | Change in weight, Mean ([1]; 2 weeks of oral administration): 237.8 g | Change in weight, Mean ([1]; 3 weeks of oral administration): 293.0 g | Change in weight, Mean ([1]; 4 weeks of oral administration): 338.1 g | Change in weight, Mean ([1]; 5 weeks of oral administration): 354.1 g | L. rhamnosus, Mean ± SD (L. rhamnosus): 7.340 ± 0.09975 Nlog10/1 g feces | SOD, Mean ± SD [2]: 6.248 ± 0.08967 U/L | TAS, Mean ± SD [3]: 1.568 ± 0.01708 mmol/L | E. faecium, Mean ± SD (E. faecium): 7.032 ± 0.1134 Nlog10/1 g feces | concentration at 5 weeks [4]: 32.5 ± 1.29 µM
